Source: ChEMBL document CHEMBL1152295, “Novel 3,3-disubstituted pyrrolidines as selective triple serotonin/norepinephrine/dopamine reuptake inhibitors” (Bioorg Med Chem Lett, 2008)

How the values were obtained:
in vitro [1] = conditions: human
in vitro [2] = conditions: human; remark: listed apart in the source
in vitro [3] = conditions: human, liver microsomes
Caco-2 [4] = conditions: human, caco-2, 10 µM
Caco-2 [5] = conditions: human, caco-2, 10 µM; remark: listed apart in the source

| Structure (SMILES) | Papp B→A at 10 µM (in vitro [1]; Caco-2, Papp) | Papp A→B at 10 µM (in vitro [2]; Caco-2, Papp) | microsomal CLint (in vitro [3]; Stability) | also measured |
| --- | --- | --- | --- | --- |
| c1ccc(CC2(c3ccc4[nH]ccc4c3)CCNC2)nc1 (stereo not drawn) | 18 ×10⁻⁶ cm/s | 3.2 ×10⁻⁶ cm/s | 86 µL/min/mg | – |
| NC(=O)c1cc2cc(C3(Cc4ccccc4)CCNC3)ccc2[nH]1 (stereo not drawn) | 17 ×10⁻⁶ cm/s | 0.6 ×10⁻⁶ cm/s | 1.4 µL/min/mg | – |
| Cn1ccc2cc(C3(Cc4ccccc4)CCNC3)ccc21 (stereo not drawn) | – | – | 106 µL/min/mg | – |
| CN(C)C(=O)c1cc2cc(C3(Cc4ccccc4)CCNC3)ccc2[nH]1 (stereo not drawn) | 24 ×10⁻⁶ cm/s | 4 ×10⁻⁶ cm/s | 12.8 µL/min/mg | – |
| CCCC1(c2ccc3[nH]ccc3c2)CCNC1 (stereo not drawn) | – | – | – | Papp B→A at 10 µM (in vitro [1]; Caco-2): 24 ×10⁻⁶ cm/s; Papp A→B at 10 µM (in vitro [2]; Caco-2): 16.5 ×10⁻⁶ cm/s; microsomal CLint (in vitro [3]): 2.3 µL/min/mg |
| CCCCC1(c2ccc3[nH]ccc3c2)CCNC1 (stereo not drawn) | 19 ×10⁻⁶ cm/s | 9.4 ×10⁻⁶ cm/s | 38 µL/min/mg | – |
| c1ccc(CC2(c3ccc4sccc4c3)CCNC2)cc1 (stereo not drawn) | – | – | 198 µL/min/mg | – |
| CCOC(=O)c1cc2cc(C3(Cc4ccccc4)CCNC3)ccc2[nH]1 (stereo not drawn) | 3.4 ×10⁻⁶ cm/s | 3.5 ×10⁻⁶ cm/s | 47.8 µL/min/mg | – |
| Fc1ccc(CC2(c3ccc4[nH]ccc4c3)CCNC2)cc1 (stereo not drawn) | – | – | 84 µL/min/mg | – |
| COc1cccc(CC2(c3ccc4[nH]ccc4c3)CCNC2)c1 (stereo not drawn) | – | – | 77 µL/min/mg | – |
| c1ccc(CC2(c3ccc4[nH]ncc4c3)CCNC2)cc1 (stereo not drawn) | 22 ×10⁻⁶ cm/s | 10 ×10⁻⁶ cm/s | 28 µL/min/mg | – |
| c1ccc(CC2(c3ccc4[nH]ccc4c3)CCNC2)cc1 (stereo in doubt; 16) [5-(3-BENZYLPYRROLIDIN-3-YL)-1H-INDOLE (STRUCTURAL MIX)] | – | – | – | Papp (Caco-2 [4]): 14 ×10⁻⁶ cm/s; Papp (Caco-2 [5]): 17 ×10⁻⁶ cm/s |
| c1ccc(CC2(c3ccc4[nH]ccc4c3)CCNC2)cc1 (stereo in doubt; (+)-16) [5-(3-BENZYLPYRROLIDIN-3-YL)-1H-INDOLE (STRUCTURAL MIX)] | 9.9 ×10⁻⁶ cm/s | 21 ×10⁻⁶ cm/s | 154 µL/min/mg | – |
| Clc1ccc([C@]23CNC[C@H]2C3)cc1Cl [AMITIFADINE] | – | – | – | Papp B→A at 10 µM (in vitro [1]; Caco-2): 2.1 ×10⁻⁶ cm/s; Papp A→B at 10 µM (in vitro [2]; Caco-2): 2.9 ×10⁻⁶ cm/s; microsomal CLint (in vitro [3]): 47 µL/min/mg |
